Laboratory results from patent publication US20100226857A1, “TUMOR CELL DIFFERENTIATION AGENTS AS CHEMICAL INHIBITORS AND TREATMENTS FOR INTRACELLULAR PARASITES” (priority 2006, published 2010).
Values after ≈ are worked out from the molar mass of the structure shown. Where two headings read alike, the source gives them in different places.

Assays:
T. gondii tachyzoites [1] = test: T. gondii tachyzoite proliferation assay in HS68 cells (tachyzoite count); format: cell-based, Toxoplasma gondii
Description: Parasite propagation—The RH strain of Toxoplasma gondii was grown in BM bovine macrophage cells or HS68 human foreskin fibroblast cells obtained from the American Type Culture Collection (Rockville, Md.). HS68 cells were grown in RPMI 1640 medium (Mediatech, Inc., Herndon, Va.) plus 10% fetal bovine serum (Atlanta Biologicals, Lawrenceville, Ga.), 1 mM sodium pyruvate and 100 U/ml each of penicillin and streptomycin. Parasites were harvested from infected cultures of HS68 cells growing in T-75 cm^2 flasks. After removing the culture medium, the cells were scraped into 5 ml of phosphate-buffered saline and a cell lysate obtained by passing through a 26-gauge needle. To purify the parasites, the cell lysate was filtered through a 3 micron (micrometer) filter.
(§1) Proliferation assays: HS68 cells were replica plated in 48-well dishes, and grown to confluence prior to infection with 5-10×10^4 freshly purified T. gondii tachyzoites/well. After 2 hours, the media and non-infective tachyzoites were removed, and replaced with RPMI medium containing 2% fetal bovine serum plus 1 mM sodium pyruvate, penicillin (100 U), streptomycin (100 U) and test agent or a vehicle control. The proliferation assays were terminated 48-72 hours post-infection when the untreated cells were heavily infected. All of the culture media were removed from the wells, and the tachyzoites in the media were fixed by dilution (1:1) into phosphate-buffered saline containing 10% formaldehyde. The tachyzoites were collected by brief centrifugation (30 seconds, […]) at room temperature using a tabletop microfuge. The tachyzoites were resuspended in 100 ul of phosphate-buffered saline, and duplicate aliquots were counted using a hemocytometer. […] The monolayer of HS68 cells in each well was fixed and stained for 5 minutes using a solution of 50% ethanol-5% formaldehyde-0.1% crystal violet in 0.85% sodium chloride, then rinsed with water, and air-dried. The minimum inhibitory concentration (MIC) of compounds that suppressed Toxoplasma-induced lysis of the HS68 cells was determined visually by counting the number of plaques/well in the monolayer.

T. gondii = test: Plaque suppression / protection of HS68 monolayer from T. gondii; format: cell-based, Toxoplasma gondii; conditions: for MIC IC50 (ratio MIC/IC50): MIC plaque suppression relative to IC50 tachyzoite count; for MIC: Toxoplasma gondii, read-out: MIC (uM) Plaque Suppression
Description: as §1

[2] = system: MCF-7 human breast cancer cells; test: ESR free radical (ROS) measurement in MCF-7 cell suspensions with DMPO; format: cell-based
Description: Free Radical Measurements: All ESR measurements were conducted using a Bruker EMIR spectrometer (Bruker Instruments Inc., Billerica, Mass.) and a flat-cell assembly. Hyperfine couplings were measured (to 0.1 G) directly from magnetic field separation using potassium tetraperoxochromate (K3CrO8) and 1,1-diphenyl-2-picrylhydrazyl as reference standards. The relative radical concentration was estimated by multiplying half of the peak height by (ΔHpp)^2, where (ΔHpp) represents peak-to-peak width. The Acquisit program was used for data acquisitions and analyses. MCF-7 cells (2.0×10^6 cells/60-mm^2 dish) were harvested 48 h after plating by trypsinization and collected at room temperature by centnfugation (225 g, 5 min). Cells were washed once with ice-cold PBS and resuspended in ice-cold PBS at 2×10^6 cells/ml. Radical production was measured in the presence of the spin trap 5,5-dimethyl-1-pyrroline-N-oxide (DMPO; Aldrich Chemical Co., Milwaukee, Wis.). DMPO (200 mM) and 1×10^6 cells test agents were mixed in 1.0 ml of PBS, incubated at 37° C. for 5 mm, and then transferred to a flat cell for ESR measurements.

[3] = system: HS68 human foreskin fibroblast cells; test: Toxicity to HS68 host cells; format: cell-based
T. gondii tachyzoites [4] = test: In vivo acute toxoplasmosis in mice (survival); design: species or system Toxoplasma gondii; CD-1 mice; conditions: for control of acute toxoplasmosis in mice: TSA 0.5 mg/kg, SAHA 50 mg/kg, scriptaid 3.5 mg/kg i.p. once daily, valproic acid 300 mg/kg oral daily; for median survival: mice
Description: Specifically, female CD-1 mice (20 g) were inoculated in the sub-scapular region with 5,000 T. gondii tachyzoites on Day 0. […] The dose of scriptaid was not optimized in this experiment. In this study, valproic acid was administered orally in the drinking water at a dose of 300 mg/kg. Survival was monitored twice daily beginning on day 9 of the study. The results are depicted graphically in FIG. 5A and in tabular form in FIG. 5B.

human tumor cell lines = conditions: cited from earlier work
[5] = RH strain T. gondii in HS68 cells, 48-well plate, 48-72 hours post-infection, mean+/-SEM, read-out: IC50 (uM) Tachyzoite Count
[6] = RH strain T. gondii in HS68 cells, 48-well plate, mean+/-SEM
[7] = Toxoplasma gondii, RH strain T. gondii in HS68 cells, 48-well plate, 48-72 hours post-infection, mean+/-SEM, read-out: IC50 (uM) Tachyzoite Count

O=C(CCCCCCC(=O)NO)NO [SBHA, suberic bishydroxamic acid]
IC50 (T. gondii tachyzoites [1]; [5]): 0.213 ± 0.11 µM
MIC IC50 (ratio MIC/IC50) (T. gondii): 58.7
MIC (uM) Plaque Suppression (T. gondii; [6]): 12.5 ± 5 µM (≈ 2.55 µg/mL)
ESR signal indicative of ROS production in MCF-7 cells ([2]; 10 uM NSC3852, 8 uM NSC2039): rapid and robust ESR signals

O=C(CCCCCN1C(=O)c2cccc3cccc(c23)C1=O)NO [Scriptaid]
IC50 (T. gondii tachyzoites [1]; [7]): 0.039 ± 0.011 µM
IC50 (T. gondii tachyzoites [1]; Toxoplasma gondii, RH strain in HS68 cells, average of independent experiments, read-out: IC50 T. gondii tachyzoites): 0.037 µM
low concentrations stimulating tachyzoite numbers (T. gondii tachyzoites [1]; biphasic response, FIG. 4): 1 to 10 nM
times tachyzoites are more sensitive than human tumor cells (T. gondii tachyzoites [1]; tachyzoite IC50 vs literature tumor cell concentrations): 80-1500 times
state of HS68 monolayer of T. gondii-infected treated cells (T. gondii; 1 uM, 48 hours): completely intact
MIC IC50 (ratio MIC/IC50) (T. gondii): 5.8
MIC (T. gondii; [6]): 0.225 ± 0.025 µM (≈ 0.0734 µg/mL)
toxicity to HS68 cells at highest concentration tested ([3]; 10 uM): non-toxic
control of acute toxoplasmosis in mice (T. gondii tachyzoites [4]): showed in vivo efficacy
daily dose that can extend the life of mice infected with RH T. gondii (T. gondii tachyzoites [4]; for 14 days): about 3.5 mg/kg
IC50 levels reducing tumor cell proliferation in vitro (human tumor cell lines): 1 to 20 µg/mL
IC50 (human tumor cell lines; read-out: IC50 levels reducing tumor cell proliferation in vitro): 3 to 60 µM

CCCC(=O)[O-].[Na+] [Sodium butyrate, sodium butyrate]
IC50 (T. gondii tachyzoites [1]; Toxoplasma gondii, Hs68, read-out: IC50 (uM) Tachyzoite Count): 1000 ± 455 µM
IC50 (T. gondii tachyzoites [1]; Toxoplasma gondii, Hs68, read-out: IC50 range of carboxylate inhibitors): 1000 to 5000 µM
MIC IC50 (ratio MIC/IC50) (T. gondii): 4.2
MIC (T. gondii): 4200 ± 800 µM

CC(/C=C/C(=O)NO)=C\[C@@H](C)C(=O)c1ccc(N(C)C)cc1 [TSA, trichostatin A]
IC50 (T. gondii tachyzoites [1]; [5]): 0.041 ± 0.001 µM
concentration that eliminated tachyzoites and plaque formation (T. gondii tachyzoites [1]; T. gondii infected HS68 cells): 200 nM
concentrations giving dramatic decrease in tachyzoite numbers (T. gondii tachyzoites [1]; p<0.05): > 100 nM
MIC IC50 (ratio MIC/IC50) (T. gondii): 4.3
MIC (uM) Plaque Suppression (T. gondii; [6]): 0.175 ± 0.025 µM (≈ 0.0529 µg/mL)
concentration at which apoptotic HS68 cells were evident [3]: 500 nM
control of acute toxoplasmosis in mice (T. gondii tachyzoites [4]): showed in vivo efficacy
relative peak heights of the ESR signals (mean±range, n=2) ([2]; 200 nM, 1×10^6 MCF-7 cells, 5 min at 37° C.): 99±1 mm

CCCC(CCC)C(=O)[O-].[Na+] [Valproic acid, sodium valproate]
IC50 (T. gondii tachyzoites [1]; [7]): 1600 ± 1120 µM
IC50 (T. gondii tachyzoites [1]; Toxoplasma gondii, RH strain in HS68 cells, read-out: IC50 range of carboxylate inhibitors): 1000 to 5000 µM
MIC IC50 (ratio MIC/IC50) (T. gondii): 5.2
MIC (T. gondii; [6]): 8300 ± 1000 µM
control of acute toxoplasmosis in mice (T. gondii tachyzoites [4]): ineffective
therapeutic effect against RH T. gondii in mice (T. gondii tachyzoites [4]; doses up to 600 mg/kg/day, oral or intraperitoneal): not therapeutic
median survival (T. gondii tachyzoites [4]; i.p. 400 mg/kg and 600 mg/kg divided into 2 daily doses): 10 days
median survival (T. gondii tachyzoites [4]; oral dose of 600 mg/kg): 12 days

NC(=O)c1cccnc1 [nicotinamide]
activity against T. gondii in in vitro assays (T. gondii tachyzoites [1]): minimal activity
